Results taken from patent publication US20170055529A1, “BROAD SPECTRUM WEED CONTROL IN FLOODED RICE BY IN-WATER APPLICATION OF AUXIN HERBICIDES” (priority 2015, published 2017).

System: ORYSP = Oryza sativa Japonica (transplanted paddy rice)
Test: Field trial in-water application, crop tolerance
Type: in vivo
Procedure: Field trials were conducted in rice using standard herbicide small plot research methodology. Plot size was 2 square meters (m^2) using 1.6 meter (m) diameter rings placed into the rice paddy soil with capability for flooding to maintain good rice cultural practices and rice growing conditions. There were 3 replicates per treatment. Rice was Japonica type that was hand-transplanted into the saturated soil in the rings as per normal cultural practices. The transplanted rice crop was grown using normal cultural practices for fertilization, watering, flooding and maintenance to ensure good growth of the crop and the weeds under transplanted rice conditions in Taiwan.
Treatments were applied by mixing the treatments with deionized water just prior to water-injection application by hand to multiple sides in the ring plots. For each 2 m^2 plot, 50 mL deionized water was mixed with the appropriate formulated product amounts to treat 2 m^2 to achieve the desired application rates based on unit area of application (hectare). Ring plot water depth was kept at 3 to 7 cm deep before and after water-injection application.
The rice and weeds were evaluated at 28 days after application (DAA). Triclopyr triethylammonium (as Garlon® 3 A, 360 g ae/L); fluroxypyr methylheptyl ester (meptyl or MHE, as Starane® Ultra, 333 g ae/L); 2,4-dichlorophenoxyacetic acid dimethylammonium (2,4-D AMINE, 400 g ae/L SL); penoxsulam (as Grasp® SC, 240 g ai/L); and bensulfuron-methyl (as LONDAX® 10% WAY WP) were used.
The treated and control plots were rated at 28 days after application. Ratings were based on percent (%) visual weed control, where 0 corresponds to no control and 100 corresponds to complete control.

Measured: Percent (%) Visual Injury Ratings - 28 DAA, ORYSP

O=C(O)COc1ccc(Cl)cc1Cl [2,4-D DMA (Weedar ® 64), dimethylammonium 2-(2,4-dichlorophenoxy)acetate]
0%: 140 g ae/ha in-water 10 DAT | 280 g ae/ha in-water 10 DAT | 560 g ae/ha in-water 10 DAT

CCCCCCC(C)OC(=O)COc1nc(F)c(Cl)c(N)c1Cl (stereo not drawn) [Fluroxypyr-meptyl (Starane ® Ultra), 1-methylheptyl 2-[(4-amino-3,5-dichloro-6-fluoro-2-pyridinyl)oxy]acetate]
0%: 140 g ae/ha in-water 10 DAT | 280 g ae/ha in-water 10 DAT | 560 g ae/ha in-water 10 DAT

O=C(O)COc1nc(Cl)c(Cl)cc1Cl [Triclopyr triethanolamine (Garlon ® 3A), triethylammonium 2[(3,5,6-trichloro-2-pyridinyl)oxy]acetate]
0%: 140 g ae/ha in-water 10 DAT | 280 g ae/ha in-water 10 DAT | 560 g ae/ha in-water 10 DAT
